Values joined by “and” are separate entries in the source; they are usually repeats but may differ in a detail not shown here. Identical values can stand only once.

This note sets out measurements from PMC10122656, “Siglec-6 mediates the uptake of extracellular vesicles through a noncanonical glycolipid binding pocket” (Nature Communications, 2023).

Experiment [1] deals with T1, Siglec-10 R119A CHO cells (Homo sapiens, UniProt Q96LC7, R119A).
T1 construct: expressed in transfected cells
T1 sequence (Q96LC7 17-697 R119A): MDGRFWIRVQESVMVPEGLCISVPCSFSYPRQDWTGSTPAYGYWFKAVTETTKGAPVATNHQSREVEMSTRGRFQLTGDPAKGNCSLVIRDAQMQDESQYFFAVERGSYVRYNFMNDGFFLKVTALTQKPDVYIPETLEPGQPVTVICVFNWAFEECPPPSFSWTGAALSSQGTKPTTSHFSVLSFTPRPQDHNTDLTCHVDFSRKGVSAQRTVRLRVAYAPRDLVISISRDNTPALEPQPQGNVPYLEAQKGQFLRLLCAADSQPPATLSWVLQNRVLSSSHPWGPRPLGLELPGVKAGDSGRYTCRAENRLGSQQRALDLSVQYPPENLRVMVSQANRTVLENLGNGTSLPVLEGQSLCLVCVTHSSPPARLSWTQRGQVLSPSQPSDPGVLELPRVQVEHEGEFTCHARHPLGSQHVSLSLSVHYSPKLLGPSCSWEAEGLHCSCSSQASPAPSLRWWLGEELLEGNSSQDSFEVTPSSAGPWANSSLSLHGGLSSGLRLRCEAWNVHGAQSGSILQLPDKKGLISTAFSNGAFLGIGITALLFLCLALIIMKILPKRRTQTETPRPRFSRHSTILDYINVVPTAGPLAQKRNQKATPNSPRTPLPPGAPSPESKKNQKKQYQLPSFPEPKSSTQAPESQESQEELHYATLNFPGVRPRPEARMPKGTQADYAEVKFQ
The experiment can be described thus: Cell assay (liposome/EV binding, flow cytometry). In kind it is cell-based. Particulars: Sig-10 R119A; 3 mol% ganglioside liposomes; replicates. As to the method:
(§1) Stock lipids (DSPC, Cholesterol, PEG45–DSPE) solutions were prepared by solvating the lipids in chloroform. An appropriate volume of each lipid solution was transferred to a glass test tube to reach the desired mol% of the component. The chloroform was then removed under N2 gas to yield a lipid thin film. Once dry, 100 µL of DMSO was added to the lipid-containing test tube and then the functional lipids (ganglioside, AF647–PEG45–DSPE, Siglec ligand–PEG45–DSPE, pHrodo–PEG45–DSPE, NGL) was added from their respect DMSO stock solution. The lipid mixture was then stored at −80 °C until completely frozen at which point excess DMSO was removed via lyophilization. Dry lipids were then stored at −80 °C until they were extruded. Lipid suppliers can be found in Supplementary Table 4.
(§2) Dry lipids were then hydrated in 1 mL of PBS. The lipids were then sonicated in a bath sonicator in a cycle of 1 min on, 5 min off for a total of five cycles. Liposomes were then extruded using an Avanti mini extruder first using an 800 nm filter and then a 100 nm filter yielding liposomes that were 130 ± 35 nm (Supplementary Table 5) measured using a Malvern Panalytical Zetasizer Nano S. Liposomes were stored at 4 °C.
(§3) 200,000 cells/well were plated into a 96-well U-bottom microplate and centrifuged at 300 × g for 5 min. The cells were then resuspended in 50 µL of 50 µM liposome/50 µg/mL (protein concentration) of EV solution in DMEM F12 5% FBS and incubated at 37 °C for 30 min. Excess liposomes were then removed via centrifuged at 300 × g for 5 min followed by washing the cells with FACS solution. The cells were then resuspended in (1:250 V/V) anti-Siglec-flow buffer (1% V/V FBS, 500 µM, EDTA Hank’s Balanced Salt Solution pH 7.4), solution and left to rest on ice for 30 min. The cells were then centrifuged again at 300 × g for 5 min and the cells were resuspended in FACS buffer solution and were then ready for analysis by flow cytometry. Information regarding antibody clone, catalog number supplier, label isotype, and dilution can be found in Supplementary Table 6. The Siglec-positive cells were gated on for liposome-binding analysis (Supplementary Fig. 1b).
(§4) Flow cytometry measurements were collected on a 5-laser Fortessa X-20 (BD Bioscience). All the resulting data were analyzed using FlowJo (10.5.3) software (BD Biosciences).

Experiment [2] deals with T2, CD22 R120A CHO cells (Homo sapiens, UniProt P20273, R120A).
T2 construct: expressed in transfected cells
T2 sequence (P20273 20-847 R120A): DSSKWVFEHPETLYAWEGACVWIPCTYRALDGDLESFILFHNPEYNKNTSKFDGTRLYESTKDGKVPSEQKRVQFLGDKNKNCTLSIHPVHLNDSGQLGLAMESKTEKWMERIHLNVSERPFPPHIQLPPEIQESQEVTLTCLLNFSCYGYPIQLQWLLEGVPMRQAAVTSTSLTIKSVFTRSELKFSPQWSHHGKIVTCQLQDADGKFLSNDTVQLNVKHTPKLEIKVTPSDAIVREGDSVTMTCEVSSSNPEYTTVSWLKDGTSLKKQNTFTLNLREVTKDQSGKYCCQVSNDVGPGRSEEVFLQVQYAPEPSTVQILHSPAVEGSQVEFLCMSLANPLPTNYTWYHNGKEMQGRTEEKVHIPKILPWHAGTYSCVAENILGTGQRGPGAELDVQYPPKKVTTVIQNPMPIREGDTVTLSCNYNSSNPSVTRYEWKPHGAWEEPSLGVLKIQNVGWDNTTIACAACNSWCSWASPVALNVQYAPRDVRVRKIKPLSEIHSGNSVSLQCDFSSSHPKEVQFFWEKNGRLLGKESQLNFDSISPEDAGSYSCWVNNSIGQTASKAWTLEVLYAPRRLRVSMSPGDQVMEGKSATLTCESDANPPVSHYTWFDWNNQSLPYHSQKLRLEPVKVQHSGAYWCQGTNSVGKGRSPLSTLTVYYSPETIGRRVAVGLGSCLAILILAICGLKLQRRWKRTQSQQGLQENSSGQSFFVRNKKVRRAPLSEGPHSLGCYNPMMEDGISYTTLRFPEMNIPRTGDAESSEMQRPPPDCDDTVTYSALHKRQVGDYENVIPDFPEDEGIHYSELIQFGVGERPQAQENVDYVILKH
Briefly: Cell assay (liposome/EV binding, flow cytometry). Conditions: 3 mol% ganglioside liposomes, replicates. Format: cell-based. As to the method: as §1, §2, §3, §4
A general note: In flow cytometry, cells or beads pass a laser one at a time.

Take GD1a: the “log10(MFI AF647) of GLL relative to log10(MFI AF647) of the same GLL against UT CHO cells (Fig. 2a)” value was 0.11 and 0.12 and 0.1 (2×) in experiment [1]; 0.09 and 0.1 and 0.05 and 0.08 in experiment [2].
GD1b: the “log10(MFI AF647) of GLL relative to log10(MFI AF647) of the same GLL against UT CHO cells (Fig. 2a)” value is -0.02 and -0.04 and -0.01 and 0 in experiment [1]; 0.03 and 0.02 and -0.01 and 0.01 in experiment [2].
On to GD3, for which the “log10(MFI AF647) of GLL relative to log10(MFI AF647) of the same GLL against UT CHO cells (Fig. 2a)” value in experiment [1] was 0.12 (2×) and 0.09 and 0.1; in experiment [2] it was 0.09 and 0.1 (2×) and 0.11.
As for GM1, the “log10(MFI AF647) of GLL relative to log10(MFI AF647) of the same GLL against UT CHO cells (Fig. 2a)” value in experiment [1] was -0.02 and 0.03 and 0.04 and 0.09; in experiment [2] it was 0.06 and 0.04 and -0.02 and 0.03.
Take GM2: the “log10(MFI AF647) of GLL relative to log10(MFI AF647) of the same GLL against UT CHO cells (Fig. 2a)” value in experiment [1] is 0.05 and 0.07 (2×) and 0.06; in experiment [2], 0.1 (2×) and 0.12 and 0.08.
With GM3, the “log10(MFI AF647) of GLL relative to log10(MFI AF647) of the same GLL against UT CHO cells (Fig. 2a)” value in experiment [1] was -0.12 (2×) and -0.13 (2×); in experiment [2], -0.15 and -0.16 and -0.17 and -0.18.
With GM4, the “log10(MFI AF647) of GLL relative to log10(MFI AF647) of the same GLL against UT CHO cells (Fig. 2a)” value was 0 and -0.02 and 0.02 and 0.01 in experiment [1]; 0.11 and 0.12 and 0.09 and 0.1 in experiment [2].
On to GQ1b, for which the “log10(MFI AF647) of GLL relative to log10(MFI AF647) of the same GLL against UT CHO cells (Fig. 2a)” value in experiment [1] is -0.06 (2×) and -0.07 and -0.05; in experiment [2], -0.05 and -0.03 and -0.04 and -0.06.
In the case of GT1b, the “log10(MFI AF647) of GLL relative to log10(MFI AF647) of the same GLL against UT CHO cells (Fig. 2a)” value in experiment [1] was 0.05 and 0.03 (2×) and 0; in experiment [2] it was 0.05 and 0.04 (2×) and 0.06.
